Legend:
RBL-2H3 [1] = assay: (§1) Antiallergic activity in rat RBL2H3 cells assessed as inhibition of DNP-HSA-mediated degranulation by measuring decrease in beta-hexosaminidase activity preincubated for 30 mins followed by DNP-HSA stimulation and measured after 30 mins by 4-nitrophenyl 2-acetamido-2-deoxy-beta-D-glucopyranoside substrate based assay; type: functional, cell-based
[2] = target: T1, Fatty-acid amide hydrolase 1 (Homo sapiens, UniProt O00519); assay: Inhibition of human FAAH expressed in baculovirus infected Sf9 cells using N-(6-methoxypyridin-3-yl)octanamide as substrate measured for 15 mins by fluorescence based assay
T1 sequence (O00519 whole entry): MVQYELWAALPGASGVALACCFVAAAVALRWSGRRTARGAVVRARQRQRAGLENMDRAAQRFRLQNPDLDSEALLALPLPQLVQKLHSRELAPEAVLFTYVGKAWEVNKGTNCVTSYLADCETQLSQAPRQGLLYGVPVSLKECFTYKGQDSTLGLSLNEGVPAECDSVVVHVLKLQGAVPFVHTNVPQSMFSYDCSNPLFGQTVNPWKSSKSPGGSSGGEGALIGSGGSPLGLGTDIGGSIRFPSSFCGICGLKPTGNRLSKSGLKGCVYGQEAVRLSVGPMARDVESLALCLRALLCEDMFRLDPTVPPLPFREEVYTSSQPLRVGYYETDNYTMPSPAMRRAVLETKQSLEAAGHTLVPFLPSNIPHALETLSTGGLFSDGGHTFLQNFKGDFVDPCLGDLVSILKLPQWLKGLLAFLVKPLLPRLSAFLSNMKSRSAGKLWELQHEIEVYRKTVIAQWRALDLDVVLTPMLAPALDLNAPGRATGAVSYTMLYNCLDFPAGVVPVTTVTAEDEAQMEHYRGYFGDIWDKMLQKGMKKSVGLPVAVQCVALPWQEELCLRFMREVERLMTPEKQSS

Mus musculus [3] = assay: (§2) Antiallergic activity in BALB/c mouse assessed as reduction in anti-DNP-IgE-mediated passive cutaneous anaphylaxis at 1000 mg/kg, po administered once daily for 5 days followed by anti-DNP-IgE stimulation on day 4 and subsequent DNP-HSA challenge on day 5 post 1 hr compound dose and measured after 30 mins by Evans blue dye-based spectrophotometric method relative to control; type: functional; set-up: scale not given: the % may be the effect or the level left
[4] = target: T1, Fatty-acid amide hydrolase 1; assay: Substrate activity at human FAAH expressed in baculovirus infected Sf9 cells assessed as docosahexaenoic acid formation incubated for 60 mins by HPLC analysis; type: ADME; settings: sf9, 1 h
RBL-2H3 [5] = assay: as §1, with “incubated for 30 mins prior to FAAH inhibitor URB597 addition further incubated” for “preincubated”; type: functional, cell-based
RBL-2H3 [6] = assay: as §1, with “incubated for 30 mins prior to CB2 antagonist AM630 addition further incubated” for “preincubated”; type: functional, cell-based
RBL-2H3 [7] = assay: Ratio of IC50 for antiallergic activity in rat RBL2H3 cells assessed as inhibition of DNP-HSA-mediated degranulation by measuring decrease in beta-hexosaminidase activity to IC50 for antiallergic activity in rat RBL2H3 cells assessed as inhibition of DNP-HSA-mediated degranulation by measuring decrease in beta-hexosaminidase activity in presence of FAAH inhibitor URB597; type: functional
Mus musculus [8] = assay: as §2, with “50” for “1000”; type: functional; set-up: scale not given: the % may be the effect or the level left

Row | SMILES | IC50 (RBL-2H3 [1]) [µM] | also measured
1 | CCCCC/C=C\C/C=C\C/C=C\CCCCCCC(=O)NCCO | > 50 | –
2 | CC/C=C\C/C=C\C/C=C\C/C=C\C/C=C\C/C=C\CCC(=O)NCC(=O)O | 24 | IC50 [2]: 8.6 µM; Activity (Mus musculus [3]): 0%; Drug metabolism [4]: Metabolite_Detected
3 | CC/C=C\C/C=C\C/C=C\C/C=C\C/C=C\C/C=C\CCC(=O)NCCO | 25 | IC50 [2]: > 50 µM; Activity (Mus musculus [3]): 31%; Drug metabolism [4]: Metabolite_Detected; IC50 (RBL-2H3 [5]): 7.6 µM; IC50 (RBL-2H3 [6]): 25 µM; Ratio IC50 (RBL-2H3 [7]): 3
4 | CCCCCCCC/C=C\CCCCCCCCCCCC(=O)NCCO | > 50 | –
5 | CC/C=C\C/C=C\C/C=C\C/C=C\C/C=C\C/C=C\CCC(=O)NC(CO)CO | 16 | IC50 [2]: > 50 µM; Activity (Mus musculus [3]): 17%; Drug metabolism [4]: Metabolite_Notdetected
6 | CC/C=C\C/C=C\C/C=C\C/C=C\C/C=C\C/C=C\CCC(=O)NCC(O)CO (configuration not stated) | 17 | IC50 [2]: > 50 µM; Activity (Mus musculus [3]): 23%; Drug metabolism [4]: Metabolite_Detected
7 | CC/C=C\C/C=C\C/C=C\C/C=C\C/C=C\CCCC(=O)NCCO | 24 | –
8 | CC/C=C\C/C=C\C/C=C\C/C=C\C/C=C\C/C=C\CCC(=O)NCCc1ccc(O)c(O)c1 | > 50 | –
9 | CCCCC/C=C\C/C=C\CCCCCCCCCCCC(=O)O | > 50 | –
10 | CC/C=C\C/C=C\C/C=C\C/C=C\C/C=C\C/C=C\CCC(=O)OCCO | > 50 | –
11 | CC/C=C\C/C=C\C/C=C\C/C=C\C/C=C\C/C=C\CCC(=O)NS(=O)(=O)c1ccc([N+](=O)[O-])cc1 | 15 | Activity (Mus musculus [3]): 49%
12 | CC/C=C\C/C=C\C/C=C\C/C=C\C/C=C\C/C=C\CCC(=O)N1CCN(C)CC1 | > 50 | –
13 | CC/C=C\C/C=C\C/C=C\C/C=C\C/C=C\C/C=C\CCC(=O)NCCCO | 18 | IC50 [2]: > 50 µM; Activity (Mus musculus [3]): 0%; Drug metabolism [4]: Metabolite_Detected
14 | CC/C=C\C/C=C\C/C=C\C/C=C\C/C=C\C/C=C\CCC(=O)Nc1cccc(O)c1 | > 50 | –
15 | CC/C=C\C/C=C\C/C=C\C/C=C\C/C=C\C/C=C\CCC(=O)NCC(C)O (configuration not stated) | 27 | –
16 | CCCCC/C=C\C/C=C\CCCCCCCCCCCC(=O)NCCO | > 50 | –
17 | CC/C=C\C/C=C\C/C=C\C/C=C\C/C=C\C/C=C\CCC(=O)NS(=O)(=O)c1ccc(C(F)(F)F)cc1 | 15 | Activity (Mus musculus [3]): 19%
18 | CC/C=C\C/C=C\C/C=C\C/C=C\C/C=C\C/C=C\CCC(=O)NC(C)(C)C | > 50 | –
19 | CC/C=C\C/C=C\C/C=C\C/C=C\C/C=C\C/C=C\CCC(=O)NS(=O)(=O)c1ccc(O)cc1 | > 50 | –
20 | CC/C=C\C/C=C\C/C=C\C/C=C\C/C=C\C/C=C\CCC(=O)NC(C)CO (configuration not stated) | 24 | IC50 [2]: > 50 µM; Activity (Mus musculus [3]): 7%; Drug metabolism [4]: Metabolite_Notdetected
21 | CC/C=C\C/C=C\C/C=C\C/C=C\C/C=C\C/C=C\CCC(=O)N(C)CCO | > 50 | –

Row | SMILES | IC50 (RBL-2H3 [1]) [µM] | also measured
22 | CC/C=C\C/C=C\C/C=C\C/C=C\C/C=C\C/C=C\CCC(=O)NCCN | > 50 | –
23 | CC/C=C\C/C=C\C/C=C\C/C=C\C/C=C\C/C=C\CCC(=O)NS(=O)(=O)c1ccc(C)cc1 | 27 | –
24 | CC/C=C\C/C=C\C/C=C\C/C=C\C/C=C\C/C=C\CCC(=O)N1CCN(S(C)(=O)=O)CC1 | > 50 | –
25 | CC/C=C\C/C=C\C/C=C\C/C=C\C/C=C\C/C=C\CCC(=O)NS(C)(=O)=O | > 50 | –
26 | CC/C=C\C/C=C\C/C=C\C/C=C\C/C=C\C/C=C\CCC(=O)NCCOCCO | 18 | IC50 [2]: > 50 µM; Activity (Mus musculus [3]): 11%; Drug metabolism [4]: Metabolite_Detected
27 | CC/C=C\C/C=C\C/C=C\C/C=C\C/C=C\C/C=C\CCC(=O)OCCOCCO | > 50 | –
28 | CC/C=C\C/C=C\C/C=C\C/C=C\C/C=C\C/C=C\CCC(=O)NS(=O)(=O)C1CC1 | > 50 | –
29 | CC/C=C\C/C=C\C/C=C\C/C=C\C/C=C\C/C=C\CCC(=O)NS(=O)(=O)c1cccs1 | > 50 | –
30 | CC/C=C\C/C=C\C/C=C\C/C=C\C/C=C\C/C=C\CCC(=O)N(C)CCOC | > 50 | –
31 | CC/C=C\C/C=C\C/C=C\C/C=C\C/C=C\C/C=C\CCC(=O)NS(=O)(=O)C(C)(C)C | 17 | IC50 [2]: > 50 µM; Activity (Mus musculus [3]): 0%; Drug metabolism [4]: Metabolite_Notdetected
32 | CC/C=C\C/C=C\C/C=C\C/C=C\C/C=C\C/C=C\CCC(=O)NS(=O)(=O)c1ccc(Cl)cc1 | 24 | –
33 | CC/C=C\C/C=C\C/C=C\C/C=C\C/C=C\C/C=C\CCC(=O)NCCC | > 50 | –
34 | CC/C=C\C/C=C\C/C=C\C/C=C\C/C=C\C/C=C\CCC(=O)NC(C)C | > 50 | –
35 | CC/C=C\C/C=C\C/C=C\C/C=C\C/C=C\C/C=C\CCC(=O)NS(=O)(=O)C(F)(F)C(F)(F)F | 21 | –
36 | CC/C=C\C/C=C\C/C=C\C/C=C\C/C=C\C/C=C\CCC(=O)NS(=O)(=O)c1ccccc1 | > 50 | –
37 | CC/C=C\C/C=C\C/C=C\C/C=C\C/C=C\C/C=C\CCC(=O)N1CCOCC1 | > 50 | –
38 | CC/C=C\C/C=C\C/C=C\C/C=C\C/C=C\C/C=C\CCC(=O)NC1CCOCC1 | > 50 | –
39 | CC/C=C\C/C=C\C/C=C\C/C=C\C/C=C\C/C=C\CCC(=O)NS(=O)(=O)Cc1ccccc1 | 22 | Activity (Mus musculus [3]): 2%
40 | CC/C=C\C/C=C\C/C=C\C/C=C\C/C=C\C/C=C\CCC(=O)NS(=O)(=O)c1ccc(OC(F)(F)F)cc1 | 19 | Activity (Mus musculus [3]): 11%
41 | CC/C=C\C/C=C\C/C=C\C/C=C\C/C=C\C/C=C\CCC(=O)NS(=O)(=O)C(F)(F)F | 47 | –
42 | CC/C=C\C/C=C\C/C=C\C/C=C\C/C=C\C/C=C\CCC(=O)NCC1CCOCC1 | > 50 | –

Row | SMILES | IC50 (RBL-2H3 [1]) [µM] | also measured
43 | CC/C=C\C/C=C\C/C=C\C/C=C\C/C=C\C/C=C\CCC(=O)NS(=O)(=O)c1ccc(C(=O)O)cc1 | > 50 | –
44 | CC/C=C\C/C=C\C/C=C\CCCCCCCC(=O)NCCO | 29 | Activity (Mus musculus [3]): 29%
45 | CC/C=C\C/C=C\C/C=C\C/C=C\C/C=C\C/C=C\CCC(=O)Nc1ccccc1O | > 50 | –
46 | CC/C=C\C/C=C\C/C=C\C/C=C\C/C=C\C/C=C\CCC(=O)NCCOC | > 50 | –
47 | CC/C=C\C/C=C\C/C=C\C/C=C\C/C=C\C/C=C\CCC(=O)NCC(=O)OC | > 50 | –
48 | CC/C=C\C/C=C\C/C=C\C/C=C\C/C=C\C/C=C\CCC(=O)NS(=O)(=O)c1ccc(C(=O)OC)cc1 | 30 | –
49 | CC/C=C\C/C=C\C/C=C\C/C=C\C/C=C\C/C=C\CCC(=O)N(CCO)CCO | > 50 | –
50 | CC/C=C\C/C=C\C/C=C\C/C=C\C/C=C\C/C=C\CCC(=O)OC(CO)CO | > 50 | –
51 | CC/C=C\C/C=C\C/C=C\C/C=C\C/C=C\C/C=C\CCC(=O)NS(=O)(=O)c1ccc(F)cc1 | 24 | Activity (Mus musculus [3]): 0%
52 | CCCCC/C=C\C/C=C\C/C=C\C/C=C\CCCC(=O)NCCO [ANANDAMIDE] | > 50 | –
53 | CCCCC/C=C\C/C=C\C/C=C\C/C=C\CCCC(=O)O [ARACHIDONIC ACID] | > 50 | –
54 | CCCCC/C=C\C/C=C\C/C=C\CCCCCCC(=O)O [DIHOMO-GAMMA-LINOLENIC ACID] | > 50 | –
55 | CC/C=C\C/C=C\C/C=C\C/C=C\C/C=C\C/C=C\CCC(=O)O [DOCONEXENT] | > 50 | Activity (Mus musculus [3]): 6%
56 | CCCCCCCC/C=C\CCCCCCCCCCCC(=O)O [ERUCIC ACID] | > 50 | –
57 | CC(C)(C(=O)O)c1ccc(C(O)CCCN2CCC(C(O)(c3ccccc3)c3ccccc3)CC2)cc1 (configuration not stated) [FEXOFENADINE] | – | Activity (Mus musculus [8]): 39%
58 | CC/C=C\C/C=C\C/C=C\C/C=C\C/C=C\CCCC(=O)O [ICOSAPENT] | > 50 | –
59 | CCCCC/C=C\C/C=C\CCCCCCCC(=O)O [LINOLEIC ACID] | > 50 | –
60 | CC/C=C\C/C=C\C/C=C\CCCCCCCC(=O)O [LINOLENIC ACID] | > 50 | –
61 | CCCCC/C=C\C/C=C\CCCCCCCC(=O)NCCO [LINOLEOYLETHANOLAMIDE] | 48 | –
62 | CCCCCCCC/C=C\CCCCCCCC(=O)O [OLEIC ACID] | > 50 | –
63 | CCCCCCCC/C=C\CCCCCCCC(=O)NCCO [OLEOYLETHANOLAMIDE] | > 50 | –

— ChEMBL document CHEMBL4414618, “Structure-Activity Relationships of Fish Oil Derivatives with Antiallergic Activity in Vitro and in Vivo” (J Med Chem, 2019)
